According to patent US20240423908A1, “Improved Nasal Administration of Parkinson's Therapeutics” (Cyrano Therapeutics, Inc., priority 2022, published 2024):

Assays:
Format in all cases: in vivo
Parkinson's disease = test: Treatment of Parkinson's disease with a nasal spray composition (Examples 4 and 6)
Text: (§1) A subject is admitted to a clinic for tremors and rigid muscles. The subject is diagnosed with Parkinson's disease. The subject is prescribed a rolipram composition in a nasal spray device described herein. The subject administers the nasal spray in an effective dose 2× daily in each naris. The nasal spray is characterized by a spray containing a D50 of about 15 μm to about 24 μm, a D90 of from about 30 μm to about 50 μm, and where less than about 3% of the droplets in the plume of a spray have a size of less than about 10 μm.
as §1, with “bradykinesia” for “tremors”, “impaired balance.” for “rigid muscles.”, “levodopa” for “rolipram”, “4×” for “2×”

Alzheimer's disease = test: Treatment of Alzheimer's disease with a nasal spray composition (Example 7); conditions: donepezil composition, nasal spray 3× daily in each naris
Text: as §1, with “confusion” for “tremors”, “inability to concentrate.” for “rigid muscles.”, “Alzheimer's” for “Parkinson's”, “donepezil” for “rolipram”, “3×” for “2×”

[1] = tested on: chemosensory dysfunction associated with Parkinson's disease; test: Treatment of Parkinson's disease chemosensory dysfunction with intranasal theophylline (Example 9); conditions: adult human male; about 0.4 ml per day of 3.1 mg/ml theophylline liquid composition, nasal spray twice daily in each naris; after 7 days
Description: An adult human subject was treated for chemosensory dysfunction associated with Parkinson's disease. […] The subject was administered about 0.4 ml per day of a liquid composition comprising theophylline at a concentration of 3.1 mg/ml in a nasal spray device described herein. The subject administered the nasal spray twice daily in each naris.

[2] = tested on: loss of taste associated with Parkinson's disease; test: Treatment of chemosensory dysfunction in a Parkinson's disease patient (Example 5); conditions: theophylline composition, nasal spray 2× daily in each naris
Text: A subject is admitted to a clinic for loss of taste associated with Parkinson's disease. The subject is diagnosed with chemosensory dysfunction. The subject is prescribed a theophylline composition in a nasal spray device described herein. The subject administers the nasal spray in an effective dose 2× daily in each naris. The nasal spray is characterized by a spray containing a D50 of about 15 μm to about 24 μm, a D90 of from about 30 μm to about 50 μm, and where less than about 3% of the droplets in the plume of a spray have a size of less than about 10 μm.

## N[C@@H](Cc1ccc(O)c(O)c1)C(=O)O [levodopa]
Parkinson's disease; levodopa composition, nasal spray 4× daily in each naris
  bradykinesia and balance: reduced bradykinesia and improved balance

## COc1cc2c(cc1OC)C(=O)C(CC1CCN(Cc3ccccc3)CC1)C2 (centres unmarked) [donepezil]
Alzheimer's disease
  confusion and concentration: reduced confusion and improved concentration

## COc1ccc(C2CNC(=O)C2)cc1OC1CCCC1 (centres unmarked) [rolipram]
Parkinson's disease; rolipram composition, nasal spray 2× daily in each naris
  symptoms of Parkinson's disease: reduced symptoms (e.g., reduced tremors and reduced muscle rigidity)

## Cn1c(=O)c2[nH]cnc2n(C)c1=O [theophylline]
[1]
  ability to taste and smell: regained their ability to taste and smell
[2]
  sense of taste: regains the sense of taste
